Measured values reported in US20100087475A1, “PHARMACEUTICAL COMPOUNDS” (Biovali Laboratories International (Barbados) S.R.L., priority 2008, published 2010).

Tests used:
Conditions in all cases: compound at 10 μM
Adrenergic α2C Receptor = biological target: T1, Adrenergic α2C Receptor (Homo sapiens, UniProt P18825); experiment: Radioligand binding, [3H] MK-912
T1 construct: expressed in transfected cells; host or cells: insect Sf9 cells
T1 sequence (P18825 1-462): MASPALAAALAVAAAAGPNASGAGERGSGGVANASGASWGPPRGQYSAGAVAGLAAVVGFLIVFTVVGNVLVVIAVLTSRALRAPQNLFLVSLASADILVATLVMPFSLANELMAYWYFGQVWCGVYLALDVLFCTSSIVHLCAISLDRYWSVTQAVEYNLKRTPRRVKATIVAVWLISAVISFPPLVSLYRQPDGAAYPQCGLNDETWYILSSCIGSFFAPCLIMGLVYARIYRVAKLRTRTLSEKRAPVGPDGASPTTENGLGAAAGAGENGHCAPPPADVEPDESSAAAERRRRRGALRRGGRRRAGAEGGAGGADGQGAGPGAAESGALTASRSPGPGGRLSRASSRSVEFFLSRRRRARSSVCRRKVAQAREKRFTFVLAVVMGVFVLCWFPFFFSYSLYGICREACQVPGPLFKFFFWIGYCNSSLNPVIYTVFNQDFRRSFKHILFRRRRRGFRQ
Experimental: (§1) Compounds of the invention were subjected to specific binding assays to test their ability to bind to the receptors and transporter proteins described below.
(c) Adrenergic α2C Receptor:
• Reference: S. Uhlçn et al. J. Pharmacol. Exp. Ther., 271:1558-1565 (1994) • Source: Human recombinant insect Sf9 cells • Ligand: 1 nM [^3H]

Dopamine D4.7 Receptor = experiment: Radioligand binding, [3H] Spiperone; set-up: species or system Human
Experimental: as §1
(j) Dopamine D4.7 Receptor:
• Reference: Van Tol et al., Nature, 350:610-614 (1991) • Source: Human recombinant CHO-K1 cells • Ligand: 1.5 nM [^3H]

Sigma σ2 Receptor = biological target: T2, Sigma σ2 Receptor (Rattus norvegicus, UniProt Q5U3Y7); experiment: Radioligand binding, [3H] Ifenprodil, brain; set-up: species or system Wistar rat
T2 construct: Source: Wistar rat brain; from tissue; host or cells: Wistar rat brain
T2 sequence (Q5U3Y7 1-176): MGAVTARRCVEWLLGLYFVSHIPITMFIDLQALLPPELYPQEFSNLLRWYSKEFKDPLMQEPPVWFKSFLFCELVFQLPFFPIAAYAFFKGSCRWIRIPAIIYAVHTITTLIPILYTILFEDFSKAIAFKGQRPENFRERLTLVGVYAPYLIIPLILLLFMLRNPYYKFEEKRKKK
Experimental: as §1
• Reference: Hashimoto et al., Eur. J. Pharmacol., 236:159-163, (1993) • Source: Wistar rat brain • Ligand: 3 nM [3H] Ifenprodil • Vehicle: 1% DMSO • Incubation time/Temp: 60 minutes @ 37° C. • Incubation buffer: 50 mM Tris-HCl, pH 7.4 • Non Specific ligand: 10 μM Ifenprodil • Kd: 4.8 nM • Bmax: 1.3 pmole/mg protein • Specific binding: 85% • Quantitation method: Radioligand binding • Significance criteria: ≧50% of maximum stimulation or inhibition

Dopamine D3 Receptor = biological target: T3, Dopamine D3 Receptor (Homo sapiens, UniProt P35462); experiment: Radioligand binding, [3H] Spiperone
T3 construct: expressed in transfected cells; host or cells: CHO cells
Experimental: as §1
(g) Dopamine D3 Receptor:
• Reference: Sokoloff et al., Nature, 347:146-151, (1990) • Source: Human recombinant CHO cells • Ligand: 0.7 nM [3H]

Dopamine D4.2 Receptor = biological target: T4, Dopamine D4.2 Receptor (Homo sapiens, UniProt P21917, DEL265-296); experiment: Radioligand binding, [3H] Spiperone
T4 construct: expressed in transfected cells; host or cells: CHO-K1 cells
T4 sequence (P21917 with tags, fused parts or gaps DEL265-296): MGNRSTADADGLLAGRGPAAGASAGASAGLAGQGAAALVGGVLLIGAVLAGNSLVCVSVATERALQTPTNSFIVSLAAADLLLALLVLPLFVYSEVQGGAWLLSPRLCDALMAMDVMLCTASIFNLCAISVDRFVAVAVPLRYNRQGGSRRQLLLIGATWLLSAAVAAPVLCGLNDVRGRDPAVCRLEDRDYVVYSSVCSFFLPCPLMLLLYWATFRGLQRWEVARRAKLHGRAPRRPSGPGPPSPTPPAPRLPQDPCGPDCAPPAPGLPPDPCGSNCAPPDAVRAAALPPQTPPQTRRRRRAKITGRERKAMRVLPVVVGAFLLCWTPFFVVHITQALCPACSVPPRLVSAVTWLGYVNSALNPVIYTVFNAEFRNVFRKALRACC
Experimental: as §1
(h) Dopamine D4.2 Receptor:
• Reference: Van Tol et al., Nature, 350:610-614 (1991) • Source: Human recombinant CHO-K1 cells • Ligand: 0.5 nM [^3H]

Dopamine D2L Receptor = biological target: T5, Dopamine D2L Receptor (Homo sapiens, UniProt P14416); experiment: Radioligand binding, [3H] Spiperone
T5 construct: expressed in transfected cells; host or cells: CHO cells
Experimental: as §1
(e) Dopamine D2L Receptor:
• Reference: Grandy et al., Proc. Natl. Acad. Sci. USA, 86:9762-9766 (1989) • Source: Human recombinant CHO cells • Ligand: 0.16 nM [^3H]

Dopamine D1 Receptor = biological target: T6, Dopamine D1 Receptor (Homo sapiens, UniProt P21728); experiment: Radioligand binding, [3H] SCH-23390
T6 construct: expressed in transfected cells; host or cells: CHO cells
Experimental: as §1
(d) Dopamine D1 Receptor:
• Reference: Dearry et al., Nature, 347:72-76, (1990) • Source: Human recombinant CHO cells • Ligand: 1.4 nM [3H] SCH-23390 • Vehicle: 1% DMSO • Incubation time/Temp: 2 hours @ 37° C. • Incubation buffer: 50 mM Tris-HCl, pH 7.4, 150 mM NaCl, 1.4 mM ascorbic acid, 0.001% BSA • Non Specific ligand: 10 μM (+)-butaclamol • Kd: 1.4 nM • Bmax: 0.63 pmole/mg protein • Specific binding: 90% • Quantitation method: Radioligand binding • Significance criteria: ≧50% of maximum stimulation or inhibition

T5 sequence (P14416 whole entry): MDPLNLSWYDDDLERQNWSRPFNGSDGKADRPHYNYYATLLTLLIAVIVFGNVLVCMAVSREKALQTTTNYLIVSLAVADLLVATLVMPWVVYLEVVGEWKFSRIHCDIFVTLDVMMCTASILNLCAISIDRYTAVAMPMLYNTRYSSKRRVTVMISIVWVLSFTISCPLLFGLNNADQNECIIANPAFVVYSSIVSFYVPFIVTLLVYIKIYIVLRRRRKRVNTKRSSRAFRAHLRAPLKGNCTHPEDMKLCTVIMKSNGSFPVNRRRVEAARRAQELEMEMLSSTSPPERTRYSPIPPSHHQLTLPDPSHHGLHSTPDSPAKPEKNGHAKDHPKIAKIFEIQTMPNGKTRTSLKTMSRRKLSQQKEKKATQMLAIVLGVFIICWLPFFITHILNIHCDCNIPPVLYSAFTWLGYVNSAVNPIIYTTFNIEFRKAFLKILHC
T3 sequence (P35462 whole entry): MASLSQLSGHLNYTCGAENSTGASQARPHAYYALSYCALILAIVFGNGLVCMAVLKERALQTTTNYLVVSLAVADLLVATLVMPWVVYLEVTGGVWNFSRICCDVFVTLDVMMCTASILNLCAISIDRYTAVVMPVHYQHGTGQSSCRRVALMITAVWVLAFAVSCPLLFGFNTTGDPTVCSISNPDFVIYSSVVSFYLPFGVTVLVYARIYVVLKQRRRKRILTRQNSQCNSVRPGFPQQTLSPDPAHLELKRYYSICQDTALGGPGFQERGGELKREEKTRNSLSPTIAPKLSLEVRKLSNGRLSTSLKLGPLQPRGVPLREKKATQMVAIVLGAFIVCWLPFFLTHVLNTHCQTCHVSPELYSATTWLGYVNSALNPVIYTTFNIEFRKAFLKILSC
T6 sequence (P21728 whole entry): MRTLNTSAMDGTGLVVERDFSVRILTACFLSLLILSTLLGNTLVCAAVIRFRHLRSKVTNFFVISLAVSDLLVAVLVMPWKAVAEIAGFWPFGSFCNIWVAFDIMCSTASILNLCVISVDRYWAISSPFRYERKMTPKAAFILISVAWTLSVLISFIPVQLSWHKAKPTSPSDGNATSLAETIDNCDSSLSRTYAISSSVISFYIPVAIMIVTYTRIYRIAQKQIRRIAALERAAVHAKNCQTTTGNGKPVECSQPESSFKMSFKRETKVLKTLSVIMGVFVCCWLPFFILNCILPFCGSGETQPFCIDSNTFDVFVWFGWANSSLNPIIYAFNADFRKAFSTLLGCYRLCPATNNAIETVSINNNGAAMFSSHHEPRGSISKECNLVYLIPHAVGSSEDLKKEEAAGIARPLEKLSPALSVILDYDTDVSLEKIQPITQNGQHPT

Question: Which results are given for `COc1cc2c(cc1O)[C@@H]1C[C@@H](O)[C@H](CC(C)C)CN1CC2` (single isomer, unassigned) [(+)-10-desmethyl-γ-dihydrotetrabenazine]?
Answer: % inhibition, (c) α2C Receptor (Adrenergic α2C Receptor): −7%; % inhibition, (j) D4.7 Receptor (Dopamine D4.7 Receptor): 25%; inhibition at 10 µM (Sigma σ2 Receptor; read-out: % inhibition, (n) σ2 Receptor): 31%; % inhibition, (g) D3 Receptor (Dopamine D3 Receptor): 65%; % inhibition, (h) D4.2 Receptor (Dopamine D4.2 Receptor): 55%; % inhibition, (e) D2L Receptor (Dopamine D2L Receptor): 54%; % inhibition, (d) D1 Receptor (Dopamine D1 Receptor): 29%

Question: Which results are given for `COc1cc2c(cc1O)[C@@H]1C[C@@H](O)[C@H](CC(C)C)CN1CC2` (single isomer, unassigned) [(−)-10-desmethyl-γ-dihydrotetrabenazine]?
Answer: % inhibition, (c) α2C Receptor (Adrenergic α2C Receptor): 60%; % inhibition, (j) D4.7 Receptor (Dopamine D4.7 Receptor): 87%; % inhibition, (n) σ2 Receptor (Sigma σ2 Receptor; 10 µM): 32%; % inhibition, (g) D3 Receptor (Dopamine D3 Receptor): 101%; % inhibition, (h) D4.2 Receptor (Dopamine D4.2 Receptor): 90%; % inhibition, (e) D2L Receptor (Dopamine D2L Receptor): 98%; % inhibition, (d) D1 Receptor (Dopamine D1 Receptor): 96%
